Results published in patent US20090299044A1 (priority 2006, published 2009).
Bridge positions count the residues as written; N and C are the ends. Square brackets hold non-standard residues; d marks the D form. Peptide text beside a SMILES is read from it. 1Nal = N[C@@H](Cc1cccc2ccccc12)C(=O)O

How the values were obtained:
[1] = target: T1, human Kv1.3 (CHO) (Homo sapiens, UniProt P22001); assay: cell-based
T1 construct: expressed in transfected cells; host or cells: CHO

[2] = target: T2, human Kv1.1 (HEK293) (Homo sapiens, UniProt Q09470); assay: cell-based
T2 construct: expressed in transfected cells; host or cells: HEK293
T2 sequence (Q09470 whole entry): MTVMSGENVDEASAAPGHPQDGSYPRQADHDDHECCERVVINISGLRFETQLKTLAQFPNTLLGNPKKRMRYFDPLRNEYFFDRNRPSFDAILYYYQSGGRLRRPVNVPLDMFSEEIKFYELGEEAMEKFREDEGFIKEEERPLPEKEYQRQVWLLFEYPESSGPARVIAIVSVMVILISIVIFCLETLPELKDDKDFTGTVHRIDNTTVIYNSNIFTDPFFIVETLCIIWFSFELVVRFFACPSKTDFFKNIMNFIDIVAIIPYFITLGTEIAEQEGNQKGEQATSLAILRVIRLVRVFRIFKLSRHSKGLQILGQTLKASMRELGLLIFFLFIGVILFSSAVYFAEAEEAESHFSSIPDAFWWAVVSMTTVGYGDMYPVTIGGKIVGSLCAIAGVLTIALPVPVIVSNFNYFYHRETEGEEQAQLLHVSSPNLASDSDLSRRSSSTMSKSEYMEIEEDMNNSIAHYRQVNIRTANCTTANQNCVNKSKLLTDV

T1 sequence (P22001 whole entry): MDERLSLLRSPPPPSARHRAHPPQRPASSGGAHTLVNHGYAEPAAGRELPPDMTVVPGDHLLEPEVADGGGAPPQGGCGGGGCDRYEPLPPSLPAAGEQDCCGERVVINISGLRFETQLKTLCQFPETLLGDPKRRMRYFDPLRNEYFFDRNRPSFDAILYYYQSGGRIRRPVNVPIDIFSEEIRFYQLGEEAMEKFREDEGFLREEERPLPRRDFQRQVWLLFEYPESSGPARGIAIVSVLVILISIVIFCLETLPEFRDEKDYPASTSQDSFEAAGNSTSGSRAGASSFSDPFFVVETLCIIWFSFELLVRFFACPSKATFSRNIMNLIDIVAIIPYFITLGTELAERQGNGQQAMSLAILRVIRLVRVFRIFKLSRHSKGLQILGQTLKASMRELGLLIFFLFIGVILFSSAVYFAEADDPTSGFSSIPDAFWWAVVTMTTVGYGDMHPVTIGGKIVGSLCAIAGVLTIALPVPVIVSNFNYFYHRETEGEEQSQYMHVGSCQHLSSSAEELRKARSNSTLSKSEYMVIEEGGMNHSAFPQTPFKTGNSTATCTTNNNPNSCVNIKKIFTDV

SMILES: CC[C@H](C)[C@@H]1NC(=O)[C@H](CCCCN)NC(=O)[C@@H](NC(=O)[C@H](C)NC(=O)[C@@H](NC(=O)[C@H](CC(N)=O)NC(=O)[C@@H](NC(=O)[C@@H](NC(=O)[C@@H](NC(=O)CN)C(C)C)[C@@H](C)CC)[C@@H](C)CC)C(C)C)CSSC[C@@H]2NC(=O)[C@H](CCCCN)NC(=O)CNC(=O)[C@H](Cc3ccccc3)NC(=O)[C@H](CCCNC(=N)N)NC(=O)[C@H](CCSC)NC(=O)CNC(=O)[C@H](C)NC(=O)[C@H](CCCCN)NC(=O)[C@H](CCCCN)NC(=O)[C@@H]3CSSC[C@@H](C(=O)N[C@H](C(=O)N4CCC[C@H]4C(=O)N[C@@H](CCCCN)C(=O)O)[C@@H](C)O)NC(=O)[C@H](Cc4c[nH]cn4)NC(=O)[C@H](CSSC[C@H](NC(=O)[C@H](CCC(N)=O)NC(=O)[C@H](CCCNC(=N)N)NC(=O)[C@H](CO)NC1=O)C(=O)N[C@@H](CC(C)C)C(=O)N[C@@H](CCC(=O)O)C(=O)N1CCC[C@H]1C(=O)N3)NC(=O)[C@H](CCCCN)NC(=O)CNC(=O)[C@H](CC(N)=O)NC(=O)[C@H](CCSC)NC2=O [K7A] (H-GVIINVACKISRQCLEPCKKAGMRFGKCMNGKCHCTPK-OH; disulfide 8-28, 14-33, 18-35)
- IC50 [1]: 181 pM
- IC50 [2]: 21.9 pM

SMILES: CC[C@H](C)[C@@H]1NC(=O)[C@H](CCCCN)NC(=O)[C@@H](NC(=O)[C@H](CCC(=O)O)NC(=O)[C@@H](NC(=O)[C@H](CC(N)=O)NC(=O)[C@@H](NC(=O)[C@@H](NC(=O)[C@@H](NC(=O)CN)C(C)C)[C@@H](C)CC)[C@@H](C)CC)C(C)C)CSSC[C@@H]2NC(=O)[C@H](CCCCN)NC(=O)CNC(=O)[C@H](Cc3ccccc3)NC(=O)[C@H](CCCNC(=N)N)NC(=O)[C@H](CCSC)NC(=O)CNC(=O)[C@H](C)NC(=O)[C@H](CCCCN)NC(=O)[C@H](CCCCN)NC(=O)[C@@H]3CSSC[C@@H](C(=O)N[C@H](C(=O)N4CCC[C@H]4C(=O)N[C@@H](CCCCN)C(=O)O)[C@@H](C)O)NC(=O)[C@H](Cc4c[nH]cn4)NC(=O)[C@H](CSSC[C@H](NC(=O)[C@H](CCC(N)=O)NC(=O)[C@H](CCCNC(=N)N)NC(=O)[C@H](CO)NC1=O)C(=O)N[C@@H](CC(C)C)C(=O)N[C@@H](CCC(=O)O)C(=O)N1CCC[C@H]1C(=O)N3)NC(=O)[C@H](CCCCN)NC(=O)CNC(=O)[C@H](CC(N)=O)NC(=O)[C@H](CCSC)NC2=O [K7E] (H-GVIINVECKISRQCLEPCKKAGMRFGKCMNGKCHCTPK-OH; disulfide 8-28, 14-33, 18-35)
- IC50 [1]: 14.2 pM
- IC50 [2]: < 1.52 pM

SMILES: CC[C@H](C)[C@@H]1NC(=O)[C@H](CCCCN)NC(=O)[C@@H](NC(=O)[C@H](Cc2cccc3ccccc23)NC(=O)[C@@H](NC(=O)[C@H](CC(N)=O)NC(=O)[C@@H](NC(=O)[C@@H](NC(=O)[C@@H](NC(=O)CN)C(C)C)[C@@H](C)CC)[C@@H](C)CC)C(C)C)CSSC[C@@H]2NC(=O)[C@H](CCCCN)NC(=O)CNC(=O)[C@H](Cc3ccccc3)NC(=O)[C@H](CCCNC(=N)N)NC(=O)[C@H](CCSC)NC(=O)CNC(=O)[C@H](C)NC(=O)[C@H](CCCCN)NC(=O)[C@H](CCCCN)NC(=O)[C@@H]3CSSC[C@@H](C(=O)N[C@H](C(=O)N4CCC[C@H]4C(=O)N[C@@H](CCCCN)C(=O)O)[C@@H](C)O)NC(=O)[C@H](Cc4c[nH]cn4)NC(=O)[C@H](CSSC[C@H](NC(=O)[C@H](CCC(N)=O)NC(=O)[C@H](CCCNC(=N)N)NC(=O)[C@H](CO)NC1=O)C(=O)N[C@@H](CC(C)C)C(=O)N[C@@H](CCC(=O)O)C(=O)N1CCC[C@H]1C(=O)N3)NC(=O)[C@H](CCCCN)NC(=O)CNC(=O)[C@H](CC(N)=O)NC(=O)[C@H](CCSC)NC2=O [K7Nal] (H-GVIINV[1Nal]CKISRQCLEPCKKAGMRFGKCMNGKCHCTPK-OH; disulfide 8-28, 14-33, 18-35)
- IC50 [1]: 23.6 pM
- IC50 [2]: < 1.52 pM

SMILES: CC[C@H](C)[C@@H]1NC(=O)[C@H](CCCCN)NC(=O)[C@@H](NC(=O)[C@H](CCCNC(=N)N)NC(=O)[C@@H](NC(=O)[C@H](CC(N)=O)NC(=O)[C@@H](NC(=O)[C@@H](NC(=O)[C@@H](NC(=O)CN)C(C)C)[C@@H](C)CC)[C@@H](C)CC)C(C)C)CSSC[C@@H]2NC(=O)[C@H](CCCCN)NC(=O)CNC(=O)[C@H](Cc3ccccc3)NC(=O)[C@H](CCCNC(=N)N)NC(=O)[C@H](CCSC)NC(=O)CNC(=O)[C@H](C)NC(=O)[C@H](CCCCN)NC(=O)[C@H](CCCCN)NC(=O)[C@@H]3CSSC[C@@H](C(=O)N[C@H](C(=O)N4CCC[C@H]4C(=O)N[C@@H](CCCCN)C(=O)O)[C@@H](C)O)NC(=O)[C@H](Cc4c[nH]cn4)NC(=O)[C@H](CSSC[C@H](NC(=O)[C@H](CCC(N)=O)NC(=O)[C@H](CCCNC(=N)N)NC(=O)[C@H](CO)NC1=O)C(=O)N[C@@H](CC(C)C)C(=O)N[C@@H](CCC(=O)O)C(=O)N1CCC[C@H]1C(=O)N3)NC(=O)[C@H](CCCCN)NC(=O)CNC(=O)[C@H](CC(N)=O)NC(=O)[C@H](CCSC)NC2=O [K7R] (H-GVIINVRCKISRQCLEPCKKAGMRFGKCMNGKCHCTPK-OH; disulfide 8-28, 14-33, 18-35)
- IC50 [1]: 13.2 pM
- IC50 [2]: < 1.52 pM

SMILES: CC[C@H](C)[C@@H]1NC(=O)[C@H](C)NC(=O)[C@@H](NC(=O)[C@H](CCCCN)NC(=O)[C@@H](NC(=O)[C@H](CC(N)=O)NC(=O)[C@@H](NC(=O)[C@@H](NC(=O)[C@@H](NC(=O)CN)C(C)C)[C@@H](C)CC)[C@@H](C)CC)C(C)C)CSSC[C@@H]2NC(=O)[C@H](CCCCN)NC(=O)CNC(=O)[C@H](Cc3ccccc3)NC(=O)[C@H](CCCNC(=N)N)NC(=O)[C@H](CCSC)NC(=O)CNC(=O)[C@H](C)NC(=O)[C@H](CCCCN)NC(=O)[C@H](CCCCN)NC(=O)[C@@H]3CSSC[C@@H](C(=O)N[C@H](C(=O)N4CCC[C@H]4C(=O)N[C@@H](CCCCN)C(=O)O)[C@@H](C)O)NC(=O)[C@H](Cc4c[nH]cn4)NC(=O)[C@H](CSSC[C@H](NC(=O)[C@H](CCC(N)=O)NC(=O)[C@H](CCCNC(=N)N)NC(=O)[C@H](CO)NC1=O)C(=O)N[C@@H](CC(C)C)C(=O)N[C@@H](CCC(=O)O)C(=O)N1CCC[C@H]1C(=O)N3)NC(=O)[C@H](CCCCN)NC(=O)CNC(=O)[C@H](CC(N)=O)NC(=O)[C@H](CCSC)NC2=O [K9A] (H-GVIINVKCAISRQCLEPCKKAGMRFGKCMNGKCHCTPK-OH; disulfide 8-28, 14-33, 18-35)
- IC50 [1]: 166 pM
- IC50 [2]: 40.6 pM

SMILES: CC[C@H](C)[C@@H]1NC(=O)[C@H](CCC(=O)O)NC(=O)[C@@H](NC(=O)[C@H](CCCCN)NC(=O)[C@@H](NC(=O)[C@H](CC(N)=O)NC(=O)[C@@H](NC(=O)[C@@H](NC(=O)[C@@H](NC(=O)CN)C(C)C)[C@@H](C)CC)[C@@H](C)CC)C(C)C)CSSC[C@@H]2NC(=O)[C@H](CCCCN)NC(=O)CNC(=O)[C@H](Cc3ccccc3)NC(=O)[C@H](CCCNC(=N)N)NC(=O)[C@H](CCSC)NC(=O)CNC(=O)[C@H](C)NC(=O)[C@H](CCCCN)NC(=O)[C@H](CCCCN)NC(=O)[C@@H]3CSSC[C@@H](C(=O)N[C@H](C(=O)N4CCC[C@H]4C(=O)N[C@@H](CCCCN)C(=O)O)[C@@H](C)O)NC(=O)[C@H](Cc4c[nH]cn4)NC(=O)[C@H](CSSC[C@H](NC(=O)[C@H](CCC(N)=O)NC(=O)[C@H](CCCNC(=N)N)NC(=O)[C@H](CO)NC1=O)C(=O)N[C@@H](CC(C)C)C(=O)N[C@@H](CCC(=O)O)C(=O)N1CCC[C@H]1C(=O)N3)NC(=O)[C@H](CCCCN)NC(=O)CNC(=O)[C@H](CC(N)=O)NC(=O)[C@H](CCSC)NC2=O [K9E] (H-GVIINVKCEISRQCLEPCKKAGMRFGKCMNGKCHCTPK-OH; disulfide 8-28, 14-33, 18-35)
- IC50 [1]: 31.8 pM
- IC50 [2]: 111 pM
